Literature values as cited in publication PMC4562162 (CPT: Pharmacometrics & Systems Pharmacology, 2015).

Test system: CETP

CCC(CC)CC1(C(=O)Nc2ccccc2SC(=O)C(C)C)CCCCC1 [Dalcetrapib]
effect on LDL-C levels: minimal effects on LDL-C levels
